Laboratory results: patent publication US11840551B2, “Compositions and methods of modulating the immune response by activating alpha protein kinase 1” (Shanghai Yao Yuan Biotechnology Co., Ltd., priority 2017, dated 2023)

How the values were obtained:
[1] = target: T1, ALPK1 (Homo sapiens, UniProt Q96QP1); test: Thermal shift assay (SYPRO Orange) for binding to ALPK1; conditions: ALPK1 7 uM; 1, 5, 25, 125 uM compound; H1b-ADP shift at 5, 25 and 125 uM
Excerpt: The thermal shift assay is widely used to determine the binding of a molecule to a protein of interest. The assay is based on the increase in thermal energy required for denaturation of a protein where another molecule is bound to the protein. SYPRO Orange is a fluorescent compound used in the detection of thermal shift. SYPRO Orange binds to hydrophobic surfaces of the protein, and water strongly quenches its fluorescence. When the protein unfolds, the exposed hydrophobic surfaces bind the dye, resulting in an increase in fluorescence. When another molecule is bound to the protein, an increase in the temperature required for unfolding of the protein is observed.
This assay system was used to determine whether or not chemically synthesized HBP, HMP-1bP, and H1b-ADP directly bind to ALPK1. […] Only H1b-ADP induced a shift of more than 1 degree, at each of the three highest concentrations tested, 5 uM, 25 uM, and 125 uM.

[2] = target: T1, ALPK1; test: Cell-free kinase assay of ALPK1 autophosphorylation (Western, anti-phospho-threonine); type: biochemical; conditions: 2 nM ALPK1 with ATP, 25° C., 1 h; H1b-ADP 10, 1, 0.2 nM; HBP and HMP-1bP 1, 10, 100 nM
Experimental: ALPK1 activation results in its autophosphorylation. Accordingly, we next asked whether the binding of H1b-ADP to ALPK1 was sufficient to induce ALPK1 autophosphorylation. Phosphorylation assays were performed according to standard protocols. Briefly, ALPK1 was incubated (2 nM, 25° C., 1 h) in assay buffer (20 μl, 25 mM HEPES pH 7.5, 50 mM KCl, 0.1 mM EDTA, 0.1 mM EGTA, 2 mM DTT, 1.5 mM CaCl2, 10 mM MgCl2) with ATP and chemically synthesized HBP, HMP-1bP, or H1b-ADP followed by denaturing gel electrophoresis and Western analysis with an anti-phospho-threonine antibody (CST) to detect autophosphorylation of ALPK1. […] The range of concentrations of HBP and HMP-1bP used in this assay (1 nM, 10 nM, 100 nM) was 10-fold higher than that used for H1b-ADP.

[3] = target: T1, ALPK1; test: In vitro kinase assay of ALPK1-dependent TIFA phosphorylation; type: biochemical
Experimental: We performed an in vitro kinase assay with H1b-ADP and H1b-ADP-6L along with ALPK1 protein (2 nM), and TIFA protein (1.6 uM) in kinase buffer containing 50 uM ATP. TIFA phosphorylation was analyzed by denaturing gel electrophoresis followed by western blotting using an anti-phosphothreonine antibody. H1b-ADP or H1b-ADP-6L was added at 2 nM, 0.4 nM, 80 pM, 16 pM, and 3 pM.
To test this, we performed an in vitro kinase reaction for ALPK1-dependent TIFA phosphorylation in the presence of either HBP or HIdA purified from E. coli containing inactivated HIdE, or in the presence of HBP and HIdA purified from the same HIdE wild-type E. coli used in the previous experiments. Phosphorylated TIFA (three concentrations, 1%, 0.2% and […]) was detected as described above by denaturing gel electrophoresis followed by Western analysis.

[4] = target: T1, ALPK1; test: IL-8 and TNFα mRNA expression in HEK293 cells with control or ALPK1-directed siRNA (qPCR); type: cell-based; set-up: silence ALPK1 expression in HEK293 cells; endogenous in cells; host or cells: HEK293; conditions: control vs ALPK1-directed siRNA, 4 hours, HBP 500, 100, 20 uM, HMP-1bP 500, 100 uM, H1b-ADP 100, 20, 4, 0.8 nM
Experimental: To test whether HBP, HMP-1bP, and H1b-ADP were able to induce cytokine expression in an ALPK1 dependent manner, we used an ALPK1-directed small interfering RNA (siRNA) to silence ALPK1 expression in HEK293 cells. Cells were plated (1×10^4 cells/well) into 96-well plates and transfected with either control siRNA or ALPK1-directed siRNA according to the manufacturer's protocols (Lipofectamine™ RNAiMax™, Invitrogen 13778075). Following 2 days of culture, either (1) HBP (500 uM, 100 uM, 20 uM, FIG. 2A-2B) (2) HMP-1bP (500 uM, 100 uM, FIG. 3A-3B), (3) H1b-ADP (100 nM, 20 nM, 4 nM, 0.8 nM, FIG. 4A-4B) was added to culture medium and cells were harvested 4 hours later.

[5] = test system: CT26 cells; test: CT26 tumor xenograft model, tumor growth (tumor volume); type: in vivo, BALB/c mice; conditions: Example 18, FIG. 30; 50 nmol, injections at days 7, 9, 11
Experimental: We used a CT26 tumor xenograft model to test the anti-cancer activity of H1b-ADP. Tumor cells (2×10^5 per 100 uL CT26 cells) were inoculated subcutaneously into the right flank of BALB/c mice. At day 6, mice whose tumors had reached 3-5 mm in diameter were randomized and grouped into three groups (n=8 each group), control, HMP-1bP (580 ug), and H1b-ADP (1.2 ug). Injections were performed using a total volume of 20 uL at days 6, 8, 10, 12, and 14 post inoculation. Tumor volumes were calculated every 2 days from caliper measurements of tumor dimension using the formula (L×W^2)/2, where L is the longer measurement.
To test whether H1b-ADP could augment an anti-tumor response by a checkpoint inhibitor, we tested the effects of co-administration with an anti-PD1 antibody. Tumor cells (2×10^5 per 100 μL CT26 cells) were inoculated subcutaneously into the left and right flanks of BALB/c mice. At day 7, mice whose tumors had reached 5 mm in diameter were randomized and grouped (n=8 each group) into the following four groups: anti-PD1 antibody; rat IgG; H1b-ADP+rat IgG; H1b-ADP+anti-PD1 antibody. We utilized RMP1-14 as the anti-PD1 antibody (10 mg/kg) and a rat IgG 2a (2A3) as the control IgG. Each of the anti-PD-1 antibody and the control IgG was administered intraperitoneally in a 200 μL volume on days 6, 10, 12, and 17 post-inoculation. H1b-ADP (6.2 μg) was intratumorally injected in a 20 μL volume at day 6, 8, 10, 12, and 15. Tumor volumes were calculated every 2 days from caliper measurements of tumor dimensions using the formula (L×W^2)/2, where L is the longer measurement. The results are shown in FIG. 13A for injected tumors and FIG. 13B for distant tumors. […]
The experiment was carried out as combo experiments of anti-PD1 except for the following variations. At day 6, mice whose tumors had reached 5 mm in diameter were randomized and grouped into the following four groups: anti-CTLA-4 antibody; rat IgG; H1b-ADP+rat IgG; H1b-ADP+anti-CTLA-4 antibody. We utilized 9D9 (BioxCell) as the anti-CTLA-4 antibody and a rat IgG 2b isotype (MPC-11 clone, BE0086, BioXCell) as the control IgG. Each of the anti-CTLA-4 antibody (25 μg) and the control IgG (25 μg) was administered intraperitoneally in a 200 μL volume on days 6 and 9 post-inoculation. H1b-ADP (6.2 μg) was administered intratumorally in a 20 μL volume on days 6, 7, 9, 11 post-inoculation.
The experiment was carried out as combo experiments of anti-PD1 except for the following variations. At day 6, mice whose tumors had reached 5 mm in diameter were randomized and grouped into the following four groups: c-di-AM(PS)2; PBS; H1b-ADP; H1b-ADP+c-di-AM(PS)2. We utilized c-di-AM(PS)2 as the STING agonist. […]

[6] = target: T1, ALPK1; test: IL8 secretion in HEK293 cells (IL8 ELISA) as indicator of ALPK1 activation; conditions: for IL8 secretion in HEK293 cells: without FBS, serial dilutions, 4 hours; for restoration of H1b-ADP's activity in the cell based assay (IL8 secretion): added to the FBS-containing medium, HEK293 cells
Experimental: Phosphatase such as the alkaline phosphatase may be responsible for H1b-ADP hydrolysis. We pre-mixed H1b-ADP with phosphatase inhibitor sodium orthovanadate (Na3VO4) before incubation with FBS. […] We hypothesized that the accumulation of hydrolysis product AMP can inhibit phosphatase activity.
A number of H1b-ADP derivative compounds were made as described herein and tested for biological activity as agonists of ALPK1 in vitro. In these experiments, serial dilutions of the compounds were added to the tissue culture media of HEK293 cells with (FIG. 27B, FIG. 28B, FIG. 29B) or without (FIG. 26, FIG. 27A, FIG. 28A, FIG. 29A) 10% FBS, as indicated in the figures. After 4 hours, the cell supernatant was collected and analyzed for IL8 concentration using IL8 ELISA (BD) as an indicator of ALPK1 activation.

[7] = test system: Cxcl1, Cxcl11, IL1b, and IL6 in mouse liver and lung tissue; test: Tissue expression of chemokines and cytokines after subcutaneous injection (qPCR); type: in vivo, C57 mice; conditions: subcutaneous, 2, 10, 50, 200 nmol tested, tissue harvested three hours later
Experimental: In additional experiments, Compound 1 was injected subcutaneously into 7 week old C57 mice at concentrations of 2, 10, 50, and 200 nmol. Tissue was harvested three hours later and RNA extracted. Quantitative PCR (qPCR) was performed to determine the tissue expression levels Cxcl1, Cxcl11, IL1b, and IL6 in mouse liver (FIG. 32A) and lung (FIG. 32B) tissue. Additional chemokines and cytokines were assayed in the lung tissue.

[8] = test system: phosphatase activity in the serum; test: Incubation of H1b-ADP with FBS, product analysed by LC-MS; type: in vitro ADME, bovine
Excerpt: (§1) FBS contains 110-352 μU/ml alkaline phosphatase.

[9] = test system: bovine alkaline phosphatase; test: Incubation of H1b-ADP with bovine alkaline phosphatase; type: biochemical; conditions: H1b-ADP incubated with bovine alkaline phosphatase, increasing amount of Na3VO4
Excerpt: as §1

T1 sequence (Q96QP1 whole entry): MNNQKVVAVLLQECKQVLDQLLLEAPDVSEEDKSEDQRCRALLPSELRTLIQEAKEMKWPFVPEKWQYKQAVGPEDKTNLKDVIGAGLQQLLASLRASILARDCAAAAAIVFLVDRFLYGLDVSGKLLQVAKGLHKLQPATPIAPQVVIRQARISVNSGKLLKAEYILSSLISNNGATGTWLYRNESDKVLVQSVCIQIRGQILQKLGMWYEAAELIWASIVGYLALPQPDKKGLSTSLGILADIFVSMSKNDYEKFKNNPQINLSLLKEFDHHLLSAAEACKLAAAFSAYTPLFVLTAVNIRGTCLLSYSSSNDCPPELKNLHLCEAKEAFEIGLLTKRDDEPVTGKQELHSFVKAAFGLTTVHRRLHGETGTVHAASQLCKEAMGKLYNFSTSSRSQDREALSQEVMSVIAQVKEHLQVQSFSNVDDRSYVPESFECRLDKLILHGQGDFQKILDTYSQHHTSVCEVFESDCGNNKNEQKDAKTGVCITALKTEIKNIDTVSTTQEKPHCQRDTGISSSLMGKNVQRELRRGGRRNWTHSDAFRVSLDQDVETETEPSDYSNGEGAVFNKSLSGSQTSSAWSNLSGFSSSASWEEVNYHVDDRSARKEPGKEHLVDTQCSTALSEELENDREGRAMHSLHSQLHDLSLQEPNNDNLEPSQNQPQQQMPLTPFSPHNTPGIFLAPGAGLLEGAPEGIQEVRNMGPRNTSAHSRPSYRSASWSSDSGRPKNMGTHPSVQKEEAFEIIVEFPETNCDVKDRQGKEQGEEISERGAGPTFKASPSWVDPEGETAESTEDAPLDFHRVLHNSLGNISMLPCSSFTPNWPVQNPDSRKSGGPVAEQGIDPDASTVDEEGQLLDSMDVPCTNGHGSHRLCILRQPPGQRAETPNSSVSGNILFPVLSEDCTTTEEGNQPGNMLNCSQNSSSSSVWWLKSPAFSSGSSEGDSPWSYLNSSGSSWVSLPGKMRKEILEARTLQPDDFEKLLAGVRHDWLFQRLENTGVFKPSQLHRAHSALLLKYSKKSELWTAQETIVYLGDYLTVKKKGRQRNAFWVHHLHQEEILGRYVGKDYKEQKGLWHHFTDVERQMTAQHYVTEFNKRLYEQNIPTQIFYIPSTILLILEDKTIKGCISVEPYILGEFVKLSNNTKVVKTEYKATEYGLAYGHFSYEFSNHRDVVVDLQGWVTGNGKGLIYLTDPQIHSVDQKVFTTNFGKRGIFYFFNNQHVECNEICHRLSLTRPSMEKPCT

SMILES: O=P(O)(O)OC[C@@H](O)[C@H]1O[C@@H](OP(=O)(O)O)[C@@H](O)[C@@H](O)[C@@H]1O [HBP, D-glycero-β-D-manno-heptose 1,7-bisphosphate]
- thermal shift of ALPK1 [1]: Neither HBP nor HMP-1bP were able to induce a thermal shift
- autophosphorylation of ALPK1 [2]: not HBP or HMP-1bP induces ATP-dependent autophosphorylation
- phosphorylation of the ALPK1 substrate TIFA ([3]; FIG. 7, chemically-synthesized compounds): TIFA is phosphorylated only in the presence of H1b-ADP
- IL-8 mRNA expression [4]: increased in an ALPK1-dependent manner
- TNFα mRNA expression [4]: increased in an ALPK1-dependent manner

SMILES: Nc1ncnc2c1ncn2[C@@H]1O[C@H](COP(=O)(O)OP(=O)(O)O[C@@H]2OC([C@H](O)CO)[C@@H](O)C(O)C2O)C(F)C1O (stereo in doubt) [Compound 2, Adenosine-3′-fluoro-5′-(D-glycero-β-D-mannoheptopyranosyl) diphosphate]
- tumor growth [5]: reduced tumor growth
- IL8 secretion in HEK293 cells [6]: activate IL8 secretion

SMILES: CC(=O)OC[C@@H](OC(C)=O)[C@H]1O[C@@H](OP(=O)(O)OP(=O)(O)OC[C@H]2O[C@@H](n3cnc4c(N)ncnc43)[C@H](O)[C@@H]2F)[C@@H](OC(C)=O)[C@@H](OC(C)=O)[C@@H]1OC(C)=O [Compound 1, (2S,3S,4S,5R,6R)-2-(((((((2R,3S,4S,5R)-5-(6-amino-9H-purin-9-yl)-3-fluoro-4-hydroxytetrahydrofuran-2-yl)methoxy)(hydroxy)phosphoryl)oxy)(hydroxy)phosphoryl)oxy)-6-((R)-1,2-diacetoxyethyl)tetrahydro-2H-pyran-3,4,5-triyl triacetate]
- tumor growth [5]: reduced tumor growth
- dose that activates an inflammatory response in liver tissue [7]: 2 nmol
- dose that activates an inflammatory response in lung tissue [7]: 200 nmol
- IL8 secretion in HEK293 cells [6]: activate IL8 secretion

SMILES: Nc1ncnc2c1ncn2[C@@H]1O[C@H](COP(=O)(O)O)[C@@H](O)[C@H]1O [AMP, reference compound]
- phosphatase activity in serum (H1b-ADP hydrolysis) ([8]; pre-treatment of H1b-ADP with AMP before serum incubation): inhibited phosphatase activity and the inhibition was AMP dose-dependent
- restoration of H1b-ADP's activity in the cell based assay (IL8 secretion) [6]: could restore H1b-ADP's activity in the cell based assay

SMILES: Nc1ncnc2c1ncn2[C@@H]1O[C@H](COP(=O)(O)OP(=O)(O)O[C@@H]2O[C@H]([C@@H](O)CO)[C@@H](O)[C@H](O)[C@@H]2O)[C@@H](O)[C@H]1O [Compound H1b-ADP-6L, L-glycero-D-manno-heptose-1β-ADP]
- TIFA phosphorylation ([3]; ALPK1 2 nM, TIFA 1.6 uM, 50 uM ATP, compound 2 nM, 0.4 nM, 80 pM, 16 pM, 3 pM): activated ALPK1-dependent signaling in a manner similar to H1b-ADP

SMILES: [Na+].[Na+].[Na+].[O]=[V]([O-])([O-])[O-] [Na3VO4, sodium orthovanadate]
- H1b-ADP hydrolysis in FBS ([8]; H1b-ADP pre-mixed with 1 mM Na3VO4 before incubation with FBS): effectively inhibited H1b-ADP hydrolysis
- phosphatase activity on H1b-ADP [9]: the phosphatase activity was blocked by increasing amount of Na3VO4
- restoration of H1b-ADP's activity in the cell based assay (IL8 secretion) [6]: could restore H1b-ADP's activity in the cell based assay
